Experimental data reported in article doi:10.1101/2023.05.15.540887, “Comparative analysis of drug-like EP300/CREBBP acetyltransferase inhibitors” (bioRxiv, 2023).
Like-named read-outs stand apart in the source and are kept apart here.

Key:
BT-549 = experiment: NCI-60 growth inhibition (sulforhodamine B); assay type: cell-based; conditions: Homo sapiens, BT-549, Breast Cancer, negative log of Molar value, LCONC -8, EXPID 2301NS84
[1] = system: histone H3 acetylation in MCF-10A cells (PANK4 KO+WT, KO+EV); experiment: Western blot of H3K18Ac and H3K23Ac in MCF-10A PANK4 KO+WT and KO+EV cells; assay type: cell-based, human; conditions: 3 h, 1 at micromolar and 3 at nanomolar concentrations
Description: Recently, we reported the discovery of a phosphorylation-dependent signaling cascade that can upregulate CoA biosynthesis in human cells by inhibiting the activity of PANK4, a negative regulator of this pathway (Fig. 4a).[34] This occurs via PANK4’s ability to reverse the rate-limiting step in CoA production, which is phosphorylation of pantothenate (vitamin B5) by PANK1–3.[35] […] Considering how to resolve these mechanisms, we wondered if this may be an area where knowledge of the comparative pharmacology of EP300/CREBBP inhibitors could be usefully leveraged. Specifically, we hypothesized that if PANK4 inactivation (knockout; KO) led to a resistance mechanism dependent on EP300/CREBBP active site occupancy (e.g. competitive binding), then the differential potency of 1 and 3 would be preserved – albeit over a shifted concentration range – in the resistant PANK4 KO cell line (Fig. 4b). […] To correlate these observations with the effect of the compounds on cellular acetyltransferase activity, we monitored histone H3 acetylation at an EP300/CREBBP-dependent site (H3K18Ac) and EP300/CREBBP-independent site (H3K23Ac). […]
Histone samples were quantified using the Precision Red Protein Assay (Cytoskeleton #ADV02). […]

UACC-62 = experiment: NCI-60 growth inhibition (sulforhodamine B); assay type: cell-based, human; conditions: UACC-62 (Melanoma), negative log of Molar conc., LCONC -8
SF-268 = experiment: NCI-60 growth inhibition (sulforhodamine B); assay type: cell-based, human
HL-60(TB) = experiment: NCI-60 growth inhibition (sulforhodamine B); assay type: cell-based, human; conditions: HL-60(TB) (Leukemia), negative log of Molar conc., LCONC -8
[2] = Homo sapiens, read-out: LC50 NLOGVALUE

In the case of C[C@H](CN[C@@H](C(=O)Nc1ccc(-c2cnn(C)c2)cn1)c1ccccc1)c1ccc(C#N)cc1 [CPI-1612], the GI50 (BT-549; read-out: GI50 NLOGVALUE) is reported as > 100 µM, the IC50 (BT-549; read-out: IC50 NLOGVALUE) is reported as > 100 µM and the CC50 (BT-549; read-out: LC50 NLOGVALUE) is reported as > 100 µM. The “effect on H3K18Ac, PANK4 KO+EV versus KO+WT” value [1] was “PANK4 KO lessening the effects”, the GI50 (UACC-62; Homo sapiens, read-out: GI50 NLOGVALUE) was > 100 µM and the IC50 (UACC-62; Homo sapiens, read-out: IC50 NLOGVALUE) was > 100 µM. The CC50 (UACC-62; [2]) was > 100 µM, the “TGI NLOGVALUE” (UACC-62) was 4 and the GI50 (SF-268; Homo sapiens, SF-268, read-out: GI50 AVGDATA (converted)) was 0.676 µM. The GI50 (SF-268; Homo sapiens, SF-268 (CNS Cancer), negative log of Molar conc., LCONC -8, read-out: GI50 NLOGVALUE (converted)) was 0.692 µM, the IC50 (SF-268; Homo sapiens, SF-268 (CNS Cancer), negative log of Molar conc., LCONC -8, read-out: IC50 NLOGVALUE (converted)) was 79.4 µM and the CC50 (SF-268; Homo sapiens, SF-268 (CNS Cancer), negative log of Molar conc., LCONC -8, read-out: LC50 NLOGVALUE) was > 100 µM. The “TGI NLOGVALUE” (SF-268; SF-268 (CNS Cancer), negative log of Molar conc., LCONC -8) was 4, the “TGI NLOGVALUE” (HL-60(TB)) was 4.6 and the GI50 (HL-60(TB); Homo sapiens, read-out: GI50 NLOGVALUE (converted)) was 0.0132 µM. For the same compound, the IC50 (HL-60(TB); Homo sapiens, read-out: IC50 NLOGVALUE (converted)) was 15.5 µM and the CC50 (HL-60(TB); [2]) was > 100 µM.
